Results on five molecules are retold here after patent publication US20140335019A1, “COMPOSITIONS AND METHODS FOR THE TREATMENT AND ANALYSIS OF NEUROLOGICAL DISORDERS” (THE REGENTS OF THE UNIVERSITY OF MICHIGAN, priority 2011, published 2014).

The test system of data set [1] is human SK-N-BE(2)-M17 (M17) neuroblastoma cells. Particulars: for concentration with no toxicity: human, 24 h.
Procedure: (§2) Preliminary cytotoxicity studies of the compounds in human SK-N-BE(2)-M17 (M17) neuroblastoma cells were carried out using a standard colorimetric assay for measuring cell growth (i.e., MTT assay; MTT=3-(4,5-dimethylthiazol-2-yl)-2,5-diphenyltetrazolium bromide).
Data set [2] can be described thus: solution speciation by UV-vis variable-pH titrations. The format is physicochemical. Particulars: physiological pH (ca. 7.4).
Data set [3] relates to Tg2576 hAPP-transgenic mice. Put plainly: in vivo activity in Tg2576 hAPP-transgenic mice (4G8 and Congo red staining of brain slices). Particulars: 1 mg/kg oral gavage every two days for two months; relative to control vehicle; p<0.01. Here is the method: During the development of embodiments of the technology provided herein, experiments were conducted to verify the efficacy of pharmaceutical compositions according to the technology by testing in a murine model. Pharmaceutical compositions comprising compounds described herein were administered every two days at 1 mg/kg (0.1 ml/10 g body weight) to four female Tg2576 hAPP-transgenic mice (18 months old) for two months (total 30 times in 60 days) by oral gavage.
Efficacy was evaluated after drug administration. Tissue slices […] long were prepared from cerebrums of Tg2576 mice by a procedure comprising rapid freezing and cutting using a cryostat. To verify the degree of amyloid beta accumulation, the brain tissue slices were stained by APP/Aβ17-24-immunospecific antibody 4G8. In addition, to identify the amount of mature amyloid plaques that were generated in the presence of Apolipoprotein E (ApoE), sample were stained with Congo red.

The target in data set [4] is Aβ monomer pretreated with ZnCl2 (Homo sapiens, UniProt P05067). Put plainly: NMR studies of compound with Aβ monomer pretreated with ZnCl2. Type of data set: binding. The source says:
(§1) While an understanding of the mechanism is not necessary to practice the invention and the invention is not limited to any particular mechanism of action, these observations imply that the compounds may target metal ions associated with Aβ species.

In another data set the target is Aβ aggregates (Homo sapiens, UniProt P05067). Put plainly: ELISA of interaction with Aβ aggregates. The format is binding. Conditions: similar to ThT.
Aβ aggregates, sequence (P05067 672-711 limits assumed): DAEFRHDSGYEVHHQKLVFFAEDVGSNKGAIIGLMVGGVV
Excerpt: as §1
(In general: In an ELISA, binding on a coated surface is turned into a signal by an enzyme label.)

The subject of data set [5] is Aβ species in human AD brain tissue homogenates. Put plainly: treatment of human AD brain tissue homogenates, Western blotting with 6E10. Type of data set: biochemical. Particulars: 24 h treatment, frontal cortex homogenates. The source says:
The frontal cortex section of the human AD brain was selected because it generally contains high amounts of Aβ aggregates. […] Also, using these compounds, similar to in vitro disaggregation studies with synthetic Aβ peptide above, perturbing metal-Aβ interaction is contemplated to find use for disassembling Aβ aggregates in brain tissue.
In general terms: In western blotting, separated proteins are transferred to a membrane and probed.

A further data set concerns M17 cells. Put plainly: cytotoxicity of metal (CuII or ZnII)-associated Aβ species with compounds, MTT assay. Type of data set: cell-based, human. Conditions: Aβ 20 μM, metal ions 20 μM, compound 40 μM, 24 h.
In the next data set the test system is Aβ species. Particulars: cited from earlier work.
Data set [6] in a line: in vivo biodistribution of radiolabeled compound. Set-up: species or system C57B1/6 mice. Here is the method: Healthy female C57B1/6 mice (n=18) were administered by bolus intravenous injection with [^3H]-3b (2.5 μCi) each. The mice were divided into 3 groups of 6. Each group was sacrificed at 10 min, 60 min and 120 min post injection. Biodistribution was carried out by harvesting blood from cardiac puncture and tissue (liver, heart, kidneys, lungs, small intestine, muscle, spleen, feces, bladder, bone and brain). The brain was divided into four different sections (cerebellum, frontal cortex, parietal cortex and striatum). The tissue was digested and counted for accumulated activity.

Entries after “also recorded” stand apart in the source; their conditions may differ.

Aβ monomer pretreated with ZnCl2, sequence (P05067 672-711 limits assumed): as above
Procedure for M17 cells: Then, the cells were incubated for 24 h.
as §2

As to `CN(C)c1ccc(N=Cc2ccccn2)cc1` [2b, N^1,N^1-dimethyl-N^4-(pyridin-2-ylmethylene)benzene-1,4-diamine], in data set [1], the “cytotoxicity compared with CQ” value is “less cytotoxic than CQ” and the “concentration with no toxicity” value is “up to 100 μM”.

With `CN(C)c1ccc(NCc2ccccn2)cc1` [3b, N^1,N^1-Dimethyl-N^4-(pyridin-2-ylmethyl)benzene-1,4-diamine], the “main species in solution” value in [2] is reported as “neutral form”. Moreover, in data set [3], the “Aβ immunoreactivity (4G8 staining)” value is “reduced” and the “congophilicity (Congo red staining)” value was “reduced”. Further, the “complex formation with ZnII-pretreated Aβ monomer” value in data set [4] is “a ternary complex containing Aβ, ZnII, and the molecule may be generated”. Further, the “interaction with Aβ aggregates (ELISA)” value on Aβ aggregates is “interacted with Aβ aggregates”. Also, in data set [5], the “Aβ species visualized by Western blotting with 6E10” value was “more gel-permeable and lower MW Aβ species”. In addition, the “concentration with no toxicity” value in data set [1] is listed as “up to 40 μM”. In addition, in the data set on M17 cells, the “toxicity induced by metal-Aβ” value is given as “capable of reducing metal-Aβ neurotoxicity; also recorded: noticeably diminished toxicity”.

Take `CN(C)c1ccc(-c2cn3cc(I)ccc3n2)cc1` [IMPY, 4-(6-iodoimidazo[1,2-α]pyridin-2-yl)-N,N-dimethylaniline]: the “binding affinity to Aβ species” value in the data set on Aβ species was “strong binding affinity”.

For the molecule `CN(C)c1ccc(NCc2ccccn2)cc1` [[^3H]-3b], the BBB crossing result in data set [6] (bolus intravenous injection, 2.5 μCi, 10, 60 and 120 min post injection) was “can cross the BBB”. The brain uptake result in data set [6] (cerebellum, frontal cortex, parietal cortex, striatum, 10, 60, 120 min) is on record as “relatively consistent within the time points chosen”.

For the molecule `CN(C)c1ccc(/C=C/c2ccc(I)cc2)cc1` [p-1-stilbene, (E)-4-(4-iodostyryl)-N,N-dimethylaniline], in the data set on Aβ species, the “binding affinity to Aβ species” value is given as “strong binding affinity”.
